The source of these data is PubChem BioAssay (NCI).

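Exposure lasted 48 hours, with cells grown in 96-well plates and compounds tested at five concentrations. GI50: concentration for 50% inhibition of growth. TGI: total growth inhibition.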

Test systems include RXF 393 renal; NCI-H460 lung; SK-MEL-28 melanoma; EKVX NSCLC; M14 melanoma; NCI-H226 lung; MALME-3M melanoma; 786-0 renal.
Holding throughout (test): NCI-60 cell line screen, 48 h

Consider `COc1ccc(NC(=O)CC(=O)n2nc(C)c(N=Nc3cccc(C)c3)c2C)cc1`, for which the TGI with RXF 393 renal, in the assay with NCI-H460 lung, in the assay on SK-MEL-28 melanoma, in the assay with EKVX NSCLC, with M14 melanoma and in the assay on NCI-H226 lung was > 100 µM in each case. The TGI in the assay on MALME-3M melanoma and in the assay on 786-0 renal was > 100 µM in each case.

On to `CNC(=S)N/N=C(\C(=N/NC(=S)NC)c1ccccn1)c1ccccn1`, for which the TGI was 41.1 µM in the assay on RXF 393 renal; > 100 µM in the assay with NCI-H460 lung; > 100 µM in the assay with SK-MEL-28 melanoma; > 100 µM in the assay on EKVX NSCLC; 24.5 µM with M14 melanoma; > 75.1 µM in the assay on NCI-H226 lung. The TGI is 98 µM with MALME-3M melanoma and > 84.8 µM in the assay on 786-0 renal.

With `CCCC(O)c1cn(C(NC(=O)c2ccccc2)P(=O)(OCC)OCC)nn1` (stereo unspecified), the TGI in the assay with RXF 393 renal, with NCI-H460 lung, in the assay on SK-MEL-28 melanoma, with EKVX NSCLC, in the assay on M14 melanoma and with NCI-H226 lung was > 100 µM in each case. The TGI in the assay on MALME-3M melanoma and in the assay with 786-0 renal was > 100 µM each time.

Turning to `Cc1c(-c2ccccc2)nn2cc(-c3ccccc3)nnc12`, the TGI with RXF 393 renal is 47.8 µM; in the assay with NCI-H460 lung, 51.2 µM; in the assay with SK-MEL-28 melanoma, > 100 µM; with M14 melanoma it was > 100 µM; in the assay with NCI-H226 lung it was 49.5 µM; in the assay on MALME-3M melanoma, 39.6 µM. The TGI in the assay with 786-0 renal was > 100 µM.

For `CC(=O)OCc1cncn1S(=O)(=O)c1ccc(C)cc1`, the TGI was > 100 µM in the assay on RXF 393 renal; > 65.5 µM with NCI-H460 lung; > 100 µM in the assay on SK-MEL-28 melanoma; > 100 µM with EKVX NSCLC; > 100 µM with M14 melanoma; > 100 µM with NCI-H226 lung. For the same compound, the TGI in the assay on MALME-3M melanoma and in the assay with 786-0 renal was > 100 µM throughout.

As to `CC1(C)C(CCO)CC1n1cc(I)c(=O)[nH]c1=O` (stereo unspecified), the TGI in the assay with RXF 393 renal, in the assay with SK-MEL-28 melanoma, in the assay on EKVX NSCLC, in the assay with M14 melanoma, with NCI-H226 lung and in the assay on 786-0 renal was > 100 µM throughout.

Take `CCOC(=O)c1c(Br)c(-c2ccc(OC)cc2)c(Br)n1C`: the TGI in the assay with RXF 393 renal was 45 µM; with NCI-H460 lung it was > 100 µM; with SK-MEL-28 melanoma, > 100 µM; in the assay on EKVX NSCLC it was 74.8 µM; in the assay with M14 melanoma it was > 100 µM; with NCI-H226 lung it was 87.5 µM. The results for the TGI in the assay with MALME-3M melanoma and in the assay on 786-0 renal were 44.4 µM and 73.4 µM, respectively. In the assay with MALME-3M melanoma, the GI50 is 9.99 µM.

Regarding `O=C(c1ccccc1)n1cc(-c2ccccc2)c2c(=O)[nH]cnc21`, the TGI in the assay with RXF 393 renal, with SK-MEL-28 melanoma, in the assay with EKVX NSCLC, with M14 melanoma, in the assay with NCI-H226 lung and in the assay on MALME-3M melanoma was > 100 µM in each case. In the assay on 786-0 renal, the TGI is > 100 µM.

On to `CN(CCO)CCCC1COc2ccccc2O1` (stereo unspecified), for which the TGI with RXF 393 renal, in the assay with NCI-H460 lung, in the assay on SK-MEL-28 melanoma, in the assay on EKVX NSCLC, with M14 melanoma and in the assay with NCI-H226 lung was > 100 µM each time. Further, the TGI in the assay with MALME-3M melanoma and with 786-0 renal was > 100 µM in each case.

For `CC(=O)OC(Cc1ccc2ccccc2n1)(C(F)(F)F)C(F)(F)F`, the TGI in the assay on RXF 393 renal turned out to be 2.84 µM; in the assay with NCI-H460 lung, 18.5 µM; in the assay on SK-MEL-28 melanoma, 4.03 µM; in the assay with EKVX NSCLC it was 10.2 µM; with M14 melanoma, 3.48 µM; in the assay on NCI-H226 lung, 4.77 µM. The TGI in the assay on MALME-3M melanoma was determined as 5.21 µM; in the assay with 786-0 renal, 6.37 µM.

As for `CC(=O)c1ccccc1NCC(=O)Nn1cnc2ccc(S(=O)(=O)Nc3ccccc3C(C)=O)cc2c1=O`, the TGI with NCI-H460 lung, in the assay with SK-MEL-28 melanoma, with EKVX NSCLC, with M14 melanoma, with NCI-H226 lung and with MALME-3M melanoma was > 100 µM each time. The TGI in the assay on 786-0 renal is > 100 µM.

For `COc1ccc(/C=C2\CCS(=O)(=O)c3ccccc3C2=O)cc1OC`, the TGI with RXF 393 renal was > 100 µM; with NCI-H460 lung, 47 µM; with SK-MEL-28 melanoma, > 100 µM; in the assay with EKVX NSCLC, > 100 µM; with M14 melanoma, > 100 µM; in the assay on NCI-H226 lung, > 100 µM. Also, in the assay with 786-0 renal, the TGI is > 100 µM.

With `CCOC(=O)C(CC(C)C)NC(=O)CSc1nnc(COc2ccc(Cl)cc2)n1-c1ccccc1` (stereo unspecified), the TGI is 34.3 µM in the assay on RXF 393 renal; 29.3 µM in the assay with NCI-H460 lung; 33.1 µM in the assay with SK-MEL-28 melanoma; 31.9 µM with M14 melanoma; 48.5 µM in the assay on NCI-H226 lung; 37.8 µM with MALME-3M melanoma. Also, in the assay with 786-0 renal, the TGI was determined as 28.6 µM.

Regarding `CSC1C(=O)Nc2ccc3ccccc3c21` (stereo unspecified), the TGI in the assay on NCI-H460 lung was > 100 µM; with SK-MEL-28 melanoma, > 100 µM; with EKVX NSCLC, 38.2 µM; in the assay on M14 melanoma, 68.3 µM; in the assay with NCI-H226 lung, > 100 µM; with MALME-3M melanoma, > 100 µM. In the assay on 786-0 renal, this compound had a TGI of 32.6 µM.

Turning to `NNc1nncc2[nH]cnc12`, the TGI in the assay on RXF 393 renal, with NCI-H460 lung, in the assay on SK-MEL-28 melanoma, in the assay on EKVX NSCLC, with M14 melanoma and with NCI-H226 lung was > 100 µM each time. Further, the TGI with 786-0 renal was > 100 µM.

As for `O=C(CCC(=O)CC(O)(C(F)(F)F)C(F)(F)F)CC(O)(C(F)(F)F)C(F)(F)F`, the TGI with RXF 393 renal is > 100 µM; in the assay with SK-MEL-28 melanoma, > 100 µM; with EKVX NSCLC, > 100 µM; with M14 melanoma, > 100 µM; with NCI-H226 lung, 69.5 µM; in the assay with MALME-3M melanoma, > 100 µM. Moreover, the TGI in the assay on 786-0 renal was > 100 µM.

Regarding `Oc1ccc(Cl)cc1-c1cc(-c2ccccc2)nc(NCN2CCCCC2)n1`, the TGI in the assay with RXF 393 renal, with NCI-H460 lung, with SK-MEL-28 melanoma, in the assay with EKVX NSCLC, with M14 melanoma and in the assay with MALME-3M melanoma was > 100 µM in each case. Further, the TGI with 786-0 renal is > 100 µM.
